Data on 27 compounds can be found in US11827628B2, “Compositions and methods for inhibition of the JAK pathway” (Rigel Pharmaceuticals, Inc., priority 2005, dated 2023).

The IC50 is the concentration that gives 50% inhibition.

One assay concerns Primary human T-cells. In words: Primary Human T-Cell Proliferation Assay Stimulated with IL-2 (CellTiter-Glo). The assay is classed as cell-based. To be noted: read-out: IC50, Example 42. The gist of the method:
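IC50 derived from CellTiter-Glo ATP signal after 72 hours of IL-2-driven proliferation at 37° C. Cells: primary human T-cells from blood, stimulated beforehand 3-4 days on anti-CD3/anti-CD28 with IL-2, then rested from IL-2 before compound exposure in duplicate; IL-2-free wells served as unstimulated control.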
(In general: ATP-based viability assays read luminescence as a measure of living cells.)

Assay [1] relates to IL-4 stimulated expression of CD23 in human Ramos B cells (JAK-1 and JAK-3). In words: Assay for Ramos B-Cell Line Stimulated with IL-4 (CD23 upregulation, FACS). Format: cell-based. To be noted: read-out: IC50, Example 41. A digest of the protocol: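 Read-out: anti-CD23-PE flow cytometry on Ramos B cells, giving IC50. Cells (5×10^4 per point, RPMI + 5% serum) get compound or DMSO for 1 h at 37 °C, then IL-4 50 units/mL final for 20-24 h.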

Setting [2] is: primary human T-cells stimulated with IL-2, proliferation.
[3] abbreviates: Ramos B cells stimulated with IL-4, CD23 expression by FACS.

Read-outs that look alike come from different tables or passages of the source.

On to `COCCOc1ccc(Nc2nc(Nc3ccc(Cl)c(S(N)(=O)=O)c3)ncc2F)cc1` [VI-111, N2-(3-Aminosulfonyl-4-chlorophenyl)-5-fluoro-N4-[4-(2-methoxyethyleneoxy)phenyl]-2,4-pyrimdinediamine], for which the IC50 came to 1.09 µM in the assay on Primary human T-cells (setting [2]) and 0.314 µM in assay [1] (setting [3]).
Consider `COCCOc1ccc(Nc2nc(Nc3ccc(C)c(S(N)(=O)=O)c3)ncc2F)cc1` [VI-112, N2-(3-Aminosulfonyl-4-methylphenyl)-5-fluoro-N4-[4-(2-methoxyethyleneoxy)phenyl]-2,4-pyrimdinediamine], for which the IC50 came out at 0.77 µM with Primary human T-cells (setting [2]) and 0.152 µM in assay [1] (setting [3]).
Turning to `CCS(=O)(=O)N1CCc2cc(Nc3nc(Nc4ccc(S(N)(=O)=O)cc4)ncc3F)ccc2C1` [VII-13, N2-(4-aminosulfonyl)phenyl-N4-[(N-ethylsulfonyl)-1,2,3,4-tetrahydroisoquinolin-6-yl]-5-fluoro-2,4-pyrimidinediamine], the results for the half-inhibitory concentration (IC50) (with Primary human T-cells (setting [2]); in assay [1] (setting [3])) were 0.38 µM and 0.14 µM, respectively.
For the compound `CCS(=O)(=O)N1CCc2cc(Nc3nc(Nc4cccc(S(N)(=O)=O)c4)ncc3F)ccc2C1` [VII-14, N2-(3-aminosulfonyl)phenyl-N4-[(N-ethylsulfonyl)-1,2,3,4-tetrahydroisoquinolin-6-yl]-5-fluoro-2,4-pyrimidinediamine], the figures for the IC50 (in the assay on Primary human T-cells (setting [2]); in assay [1] (setting [3])) were 0.177 µM and 0.103 µM, respectively.
On to `CCS(=O)(=O)N1CCc2cc(Nc3nc(Nc4ccc(C)c(S(N)(=O)=O)c4)ncc3F)ccc2C1` [VII-15, N2-(3-aminosulfonyl-4-methyl)phenyl-N4-[(N-ethylsulfonyl)-1,2,3,4-tetrahydroisoquinolin-6-yl]-5-fluoro-2,4-pyrimidinediamine], for which the concentration for half-maximal inhibition (IC50) in the assay on Primary human T-cells (setting [2]) came out at 0.121 µM; in assay [1] (setting [3]), 0.0666 µM.
Consider `Cc1ccc(Nc2ncc(F)c(Nc3ccc4c(c3)CNCC4)n2)cc1S(N)(=O)=O` [VII-16, N2-(3-Aminosulfonyl-4-methylphenyl)-5-fluoro-N4-(1,2,3,4-tetrahydroisoquin-7-yl)-2,4-pyrimidinediamine], for which the 50% inhibitory concentration (IC50) with Primary human T-cells (setting [2]) turned out to be 1.07 µM; in assay [1] (setting [3]) it was 0.275 µM.
`CNC(=O)N1CCc2ccc(Nc3nc(Nc4ccc(C)c(S(N)(=O)=O)c4)ncc3F)cc2C1` [VII-17, N2-(3-Aminosulfonyl-4-methylphenyl)-5-fluoro-N4-[2-(methylaminocarbonyl)-1,2,3,4-tetrahydroisoquin-7-yl]-2,4-pyrimidinediamine]: the figures for the IC50 (with Primary human T-cells (setting [2]); in assay [1] (setting [3])) were 2.1 µM and 0.353 µM, respectively.
As to `Cc1ccc(Nc2ncc(F)c(Nc3ccc4c(c3)CN(C(=O)N(C)C)CC4)n2)cc1S(N)(=O)=O` [VII-18, N2-(3-Aminosulfonyl-4-methylphenyl)-5-fluoro-N4-[2-(dimethylaminocarbonyl)-1,2,3,4-tetrahydroisoquin-7-yl]-2,4-pyrimidinediamine], the IC50 is 0.839 µM in the assay on Primary human T-cells (setting [2]) and 0.227 µM in assay [1] (setting [3]).
Consider `CNC(=O)N1CCCc2cc(Nc3nc(Nc4ccc(C)c(S(N)(=O)=O)c4)ncc3F)ccc21` [VII-19, N2-(3-Aminosulfonyl-4-methylphenyl)-5-fluoro-N4-[1-(methylaminocarbonyl)-1,2,3,4-tetrahydroquin-6-yl]-2,4-pyrimidinediamine], for which the IC50 in the assay on Primary human T-cells (setting [2]) was found to be 0.514 µM; in assay [1] (setting [3]), 0.0875 µM.
As to `COCCCn1ncc2cc(Nc3nc(Nc4cccc(S(N)(=O)=O)c4)ncc3F)ccc21` [VII-22, N2-(3-Aminosulfonylphenyl)-5-fluoro-N4-[1-(3-methoxypropyl)indazolin-5-yl]-2,4-pyrimidinediamine], the results for the IC50 (in the assay on Primary human T-cells (setting [2]); in assay [1] (setting [3])) were 0.128 µM and 0.111 µM, respectively.
The like results for `COCCn1ncc2cc(Nc3nc(Nc4cccc(S(N)(=O)=O)c4)ncc3F)ccc21` [VII-23, N2-(3-Aminosulfonylphenyl)-5-fluoro-N4-[1-(2-methoxyethyl)indazolin-5-yl]-2,4-pyrimidinediamine] were, in that order, 0.161 µM and 0.129 µM.
Turning to `NC1CCOc2ccc(Nc3nc(Nc4cccc(S(N)(=O)=O)c4)ncc3F)cc21` (stereo not drawn) [VII-28, N2-(3-Aminosulfonylphenyl)-N4-(chroman-4-amine-6-yl)-5-fluoro-2,4-pyrimidinediamine], the IC50 in the assay with Primary human T-cells (setting [2]) was 0.709 µM; in assay [1] (setting [3]), 0.0367 µM.
The like results for `NC1CCOc2ccc(Nc3nc(Nc4ccc(S(N)(=O)=O)cc4)ncc3F)cc21` (stereo not drawn) [VII-29, N2-(4-Aminosulfonylphenyl)-N4-(chroman-4-amine-6-yl)-5-fluoro-2,4-pyrimidinediamine] were, in that order, 1.46 µM and 0.0476 µM.
Consider `N#CCN1C(=O)CSc2ccc(Nc3nc(Nc4cccc(S(N)(=O)=O)c4)ncc3F)cc21` [VII-36, N2-(3-Aminosulphonylphenyl)-5-fluoro-N4-(3-oxo-4-cyanomethyl-benzo[1,4]thiazin-6-yl)-2,4-pyrimidinediamine], for which the results for the IC50 (with Primary human T-cells (setting [2]); in assay [1] (setting [3])) were 0.119 µM and 0.0295 µM, respectively.
As for `CN1C(=O)C(C)(C)Oc2cc(Nc3nc(Nc4cccc(S(N)(=O)=O)c4)ncc3F)cnc21` [VII-42, N2-(3-Aminosulfonylphenyl)-N4-[2,2,4-trimethyl-3-oxo-5-pyrid[1,4]oxazin-7-yl]-5-fluoro-2,4-pyrimidinediamine], the figures for the IC50 (with Primary human T-cells (setting [2]); in assay [1] (setting [3])) were 7.28 µM and 0.669 µM, respectively.
As to `Cc1ccc(Nc2ncc(F)c(Nc3ccc4c(c3)NC(=O)CS4)n2)cc1S(N)(=O)=O` [VII-45, N2-(3-Aminosulphonyl-4-methyl-phenyl)-5-fluoro-N4-(3-oxo-4H-benzo[1,4]thiazin-6-yl)-2,4-pyrimidinediamine], the results for the IC50 (in the assay with Primary human T-cells (setting [2]); in assay [1] (setting [3])) were 0.282 µM and 0.0439 µM, respectively.
With `CN1C(=O)CSc2ccc(Nc3nc(Nc4cccc(S(=O)(=O)N5CCCCC5)c4)ncc3F)cc21` [VII-50, 5-Fluoro-N4-(4-methyl-3-oxo-benz[1,4]thiazin-6-yl)-N2-(3-pipendinosulfonylphenyl)-2,4-pyrimidinediamine], the IC50 in the assay with Primary human T-cells (setting [2]) turned out to be 0.856 µM; in assay [1] (setting [3]), 0.35 µM.
With `CS(=O)(=O)N1CCc2cc(Nc3nc(Nc4cccc(S(N)(=O)=O)c4)ncc3F)ccc21` [VII-60, N2-(3-Aminosulfonylphenyl)-5-fluoro-N4-[4-(1-methylsulfonyl)indolin-5-yl]-2,4-pyrimidinediamine], the values for the IC50 (in the assay with Primary human T-cells (setting [2]); in assay [1] (setting [3])) were 0.152 µM and 0.065 µM, respectively.
In the case of `CNS(=O)(=O)c1cc(Nc2ncc(F)c(Nc3ccc4c(c3)CCN4S(C)(=O)=O)n2)ccc1C` [VII-62, 5-Fluoro-N2-[3-(N-methylaminosulfony)-4-methylphenyl]-N4-[4-(1-methylsulfonyl)indolin-5-yl]-2,4-pyrimidinediamine], the results for the IC50 (in the assay on Primary human T-cells (setting [2]); in assay [1] (setting [3])) were 0.144 µM and 0.104 µM, respectively.
`CS(=O)(=O)N1CCc2cc(Nc3nc(Nc4ccc(S(N)(=O)=O)cc4)ncc3F)ccc21` [VII-63]: the IC50 with Primary human T-cells (setting [2]) was determined as 0.301 µM; in assay [1] (setting [3]), 0.233 µM.
For `COc1ccc(Nc2nc(Nc3cc(C)c4c(c3)S(=O)(=O)NC=N4)ncc2F)cc1Cl` [VIII-3, N4-(3-Chloro-4-methoxyphenyl)-5-fluoro-N2-(5-methyl-2H-1,1-dioxo-1,2,4-benzothiadiazin-7-yl)-2,4-pyrimidinediamine], the IC50 in the assay on Primary human T-cells (setting [2]) was 1.84 µM; in assay [1] (setting [3]) it was 0.153 µM.
On to “N2-(3-Aminosulfonyl-4-methylphenyl)-5-fluoro-N4-[4-(2-pyridinyl)-3-fluoromethyleneoxyphenyl]-2,4-pyrimidinediamine [Compound I-172]”, for which the IC50 in the assay on Primary human T-cells (primary human T-cell proliferation stimulated with IL-2) came to 0.277 µM; in assay [1] (Ramos B-cell line stimulated with IL-4, CD23 expression by FACS), 0.0473 µM.
On to “N2-(3-Aminosulphonylphenyl)-5-fluoro-N4-[4-(3-pyridinylmethyl)benzo[1,4]oxazin-7-yl]-2,4-pyrimidinediamine [VII-55]”, for which the IC50 in the assay with Primary human T-cells (setting [2]) was determined as 0.599 µM; in assay [1] (setting [3]), 0.184 µM.
For “N2-(3-Aminosulphonylphenyl)-5-fluoro-N4-[4-(3-pyridinylmethyl)benzo[1,4]oxazin-7-yl]-2,4-pyrimidinediamine [VII-56]”, the IC50 in the assay on Primary human T-cells (setting [2]) was found to be 1.28 µM; in assay [1] (setting [3]) it was 0.185 µM.
As to “N2-[3-Aminosulfonyl-4-(4-methylpiperazine-1-yl)phenyl]-N4-(3-cyanomethylene-1H-indol-6-yl)-5-fluoro-2,4-pyrimidinediamine [IX-17]”, the values for the IC50 (with Primary human T-cells (setting [2]); in assay [1] (setting [3])) were 0.815 µM and 0.108 µM, respectively.
For “N2-[3-Aminosulfonyl-4-(4-methylpiperazine-1-yl)phenyl]-N4-(3-cyanomethylene-1H-indol-7-yl)-5-fluoro-2,4-pyrimidinediamine [IX-18]”, the IC50 in the assay on Primary human T-cells (setting [2]) came out at 2.4 µM; in assay [1] (setting [3]), 0.168 µM.
On to “N4-(3-Chloro-4-cyanomethyleneoxyphenyl)-5-fluoro-N2-(5-methyl-2H-1,1-dioxide-1,2,4-benzothiadiazin-7-yl)-2,4-pyrimidinediamine [VIII-2]”, for which the half-maximal inhibitory concentration (IC50) is 0.409 µM in the assay on Primary human T-cells (setting [2]) and 0.178 µM in assay [1] (setting [3]).
